Results from PubChem BioAssay (NCI).
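Method: 48-hour compound exposure of cells in 96-well plates, five concentrations, linear interpolation of endpoints. GI50 marks 50% less growth. TGI is the concentration that stops growth completely.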 Where a SMILES comes first, the peptide text is derived from it. Bridges are numbered along the chain shown (N, C = ends). [ ]: non-standard residue; d: D form. aThr = C[C@H](O)[C@H](N)C(=O)O

Assays:
Test in all cases: DTP human tumour cell line panel, 48 h
[1] = system: CAKI-1 renal
[2] = system: HCT-15 colon
[3] = system: HL-60(TB) leukemia
[4] = system: OVCAR-5 ovarian
[5] = system: RPMI-8226 leukemia
[6] = system: RXF 393 renal
[7] = system: A498 renal
[8] = system: MDA-MB-435
[9] = system: NCI/ADR-RES ovarian
[10] = system: PC-3 prostate

Compound	TGI [1] [µM]	TGI [2] [µM]	TGI [3] [µM]	TGI [4] [µM]	TGI [5] [µM]	TGI [6] [µM]	TGI [7] [µM]	GI50 [7] [µM]	GI50 [1] [µM]	GI50 [2] [µM]	GI50 [3] [µM]	GI50 [8] [µM]	TGI [8] [µM]	GI50 [9] [µM]	TGI [9] [µM]	GI50 [4] [µM]	GI50 [10] [µM]	TGI [10] [µM]	GI50 [5] [µM]	GI50 [6] [µM]
COc1cc(/C=C/c2csnn2)cc(OC)c1OC	> 100	> 100	> 100	> 100	> 100	> 100	–	–	–	–	–	–	–	–	–	–	–	–	–	–
Cc1ccccc1C(CCCO)C(=O)O (stereo not drawn)	> 100	> 100	> 100	> 100	> 100	> 100	> 100	–	–	–	–	–	–	–	–	–	–	–	–	–
ClCCOCCn1cnc2c(Cl)nc(Cl)nc21	13.5	18.9	> 100	28.9	> 100	–	32.1	16.2	2.61	4.89	4.08	10.9	24.1	17.9	41.4	15	14	31.5	18.6	–
COc1ccc2nc(NC(=O)C(=O)CC(=O)c3ccc([N+](=O)[O-])cc3)sc2c1	> 100	–	–	> 100	> 100	–	> 100	–	–	–	–	–	–	–	–	–	–	–	–	–
O=NN(CCCl)C(=O)NC1CCC(CC(=O)O)CC1 (stereo not drawn)	> 100	> 100	> 100	> 100	> 100	> 100	> 100	–	–	–	–	–	–	–	> 100	–	–	–	–	–
NC1=NC(Cn2nc(-c3ccccc3)c3ccccc3c2=O)=NNC(=O)N1	> 100	> 100	–	> 100	> 100	–	> 100	–	–	–	–	–	–	–	–	–	–	–	–	–
O=[N+]([O-])c1ccc(-c2ccc(C3=Nn4c(CNc5ccccc5Cl)nnc4SC3)o2)cc1	> 100	> 100	> 100	> 100	> 100	–	–	–	–	–	–	–	–	–	–	–	–	–	–	–
CC(=O)NC1C(O[C@H]2C[C@H]3[C@@H]4CC=C5C[C@@H](O)CC[C@]5(C)[C@H]4CC[C@]3(C)[C@H]2[C@H](C)C(=O)CCC(C)C)OCC(O)C1O (stereo partly drawn)	6.75	10.5	–	20.1	2.06	1.41	2.88	0.977	1.53	4.38	–	2.06	8.73	13.1	> 42.5	6.34	2.05	10.3	0.593	0.398
COc1ccc(-c2[nH]c3ccc(OC)cc3c2C=C(C#N)C#N)cc1	> 100	> 100	–	> 100	> 100	> 100	3.97	0.075	–	0.766	–	–	–	0.389	> 100	> 100	0.342	> 100	2.5	5.48
Cc1ccc(S(=O)(=O)NCCCCC(N)C(=O)O)cc1 (stereo not drawn)	> 100	> 100	–	> 100	> 100	> 100	> 100	–	–	–	–	–	> 100	–	> 100	–	–	> 100	–	–
CCOC(=O)/C(=C/c1ccccn1)C(=O)c1ccccc1	27.9	29.3	5.3	33.5	13.2	24.2	43.1	–	–	–	–	–	–	–	–	–	–	–	–	–
O=C1CC(c2ccc(Cl)cc2)=Nc2ccccc2N1	> 100	> 100	57.6	> 100	–	61.4	> 100	–	–	–	–	–	–	–	–	–	–	–	–	–
O=C1C2C3C=CC(C2C(=O)N1CO)C1C2C(=O)N(CO)C(=O)C2C31 (stereo not drawn)	> 100	> 62.9	–	> 100	46.5	> 100	> 100	–	–	–	–	–	–	–	–	–	–	–	–	–
Cc1nc2ccccc2c(=O)n1/N=C(\N=Nc1ccccc1Cl)c1ccccc1Cl	63.4	> 100	> 100	–	> 100	40.5	> 100	–	–	–	–	–	–	–	–	–	–	–	–	–
CN1CCOC(C(NC(=O)c2ccccc2)c2ccccc2)C1=O (stereo not drawn)	> 100	> 100	> 100	> 100	> 100	> 100	> 100	–	–	–	–	–	–	–	–	–	–	–	–	–
[O]=[V]([OH])([OH])[OH]	70.6	> 100	–	> 100	–	> 100	> 100	> 100	25.6	> 100	–	79.2	> 100	> 100	> 100	> 100	> 100	> 100	–	> 100
CC(=O)OCC(=O)[C@@]1(O)CC[C@H]2[C@@H]3C[C@H](C)C4=CC(=O)C=C[C@]4(C)[C@@]3(F)[C@@H](O)C[C@@]21C	> 100	> 100	> 100	> 100	> 100	> 100	–	–	–	–	–	–	–	–	–	–	–	–	–	–
CC(=O)Nc1ccc(C2CC(c3ccc([N+](=O)[O-])cc3)=Nc3ccccc3S2=O)cc1 (stereo not drawn)	–	50.2	42.2	> 100	20.5	32.3	–	–	–	–	–	–	–	–	–	–	–	–	–	–
CC(=O)[CH-]C(=O)c1ccccc1.[C-]#[O+].[C-]#[O+].[Ir]	> 100	> 100	> 100	> 100	> 10	> 100	–	–	> 100	> 100	> 100	–	–	–	–	> 100	–	–	> 10	> 100
O=C(NCCc1ccccc1)C1C(=O)C(=O)N(CCc2ccccc2)C1=O (stereo not drawn)	> 100	> 100	> 100	–	> 100	–	–	–	–	–	–	–	–	–	–	–	–	–	–	–
O=C(c1ccccc1)[C@H]1Nc2ccc(Cl)cc2[C@H]2CCC[C@@H]12	> 100	98.3	–	> 100	57.1	82.6	–	–	–	–	–	–	–	–	–	–	–	–	–	–

Compound	TGI [1] [µM]	TGI [2] [µM]	TGI [3] [µM]	TGI [4] [µM]	TGI [5] [µM]	TGI [6] [µM]	TGI [7] [µM]	GI50 [7] [µM]	GI50 [1] [µM]	GI50 [2] [µM]	GI50 [3] [µM]	GI50 [8] [µM]	TGI [8] [µM]	GI50 [9] [µM]	TGI [9] [µM]	GI50 [4] [µM]	GI50 [10] [µM]	TGI [10] [µM]	GI50 [5] [µM]	GI50 [6] [µM]
C=C(CN1CCc2[nH]c3ccc(F)cc3c2C1)c1ccc(C(=O)Nc2ccccc2N)cc1	5.91	12.6	–	20.6	> 100	0.949	4.62	1.5	1.93	3.17	–	1.6	4.07	0.621	11.3	4.32	4.32	52.3	2.48	0.269
CCOC(=O)C1(C)CCC(C(C(=O)O)C(=O)O)CC1=O (stereo not drawn)	> 100	> 100	> 100	> 100	> 100	> 100	> 100	–	–	–	–	–	–	–	–	–	–	–	–	–
COc1cc(/C=C/c2cc(/C=C/c3ccc(O)c(OC)c3)n(C(=O)c3ccccc3Br)n2)ccc1O	> 100	> 100	6	–	6	–	8.71	3.04	2.2	2.8	2.07	0.687	8.06	3.72	> 100	–	3.02	66.9	2.05	–
COc1ccc(-c2nc3ccc(Cc4ccc5nc(-c6ccc(OC)cc6)[nH]c5c4)cc3[nH]2)cc1	1.84	–	0.079	2.85	0.326	–	0.193	0.018	0.0509	–	< 0.0145	< 0.01	0.0202	0.0354	1.84	0.182	0.0428	1.2	0.0425	–
OCC1CC[N-]CC1.OCC1CC[N-]CC1.[Cl][Pt+2]([Cl])([Cl])[Cl]	81.5	–	–	51.5	53.1	–	–	95.3	20.3	27.8	–	24.4	64.9	33.8	–	22.7	–	73	15.2	–
c1ccc(C(c2ccccc2)c2ccccn2)cc1	> 100	> 100	–	> 100	> 100	–	> 100	–	–	–	–	–	–	–	–	–	–	–	–	–
COc1cc(/C=C2\NC(=O)C(Cc3cc(OC)c(OC)c(C)c3OC)N(C(C)=O)C2=O)c(OC)c(C)c1OC (stereo not drawn)	> 100	–	69.9	> 100	> 100	> 100	> 100	–	–	–	–	–	–	–	–	–	–	–	–	–
NNC(=O)C(=O)NN=C(C(Cl)(Cl)CO)C(Cl)(Cl)CO	97.4	75.5	69.6	92.2	> 100	72.7	> 100	–	–	–	–	–	–	–	–	–	–	–	–	–
O=C(CCCC(=O)Nc1ccc(Cl)cc1Cl)CC(=O)c1ccc2ccccc2c1	> 100	> 100	> 100	> 100	–	> 100	–	–	–	–	–	–	–	–	–	–	–	–	–	–
O=C1c2ccccc2N2OC3(N4CCOCC4)CCCC3C12c1ccccc1 (stereo not drawn)	–	> 100	> 100	–	> 100	> 100	> 100	–	–	–	–	–	–	–	–	–	–	–	–	–
OC(c1ccccc1Br)(c1ccccc1Br)C(F)(F)F	> 100	> 100	–	70	–	34.5	51.9	–	–	–	–	–	–	–	–	–	–	–	–	–
CC1NOC(=O)C1N=Nc1ccc(Cl)cc1Cl (stereo not drawn)	60.9	38.3	44.8	> 100	–	46.1	99.5	–	–	–	–	–	–	–	–	–	–	–	–	–
CC12OC(=O)C(C#N)C1(C)C1C(=O)CCCC12 (stereo not drawn)	–	> 100	> 100	> 100	> 100	> 100	–	–	–	–	–	–	–	–	–	–	–	–	–	–
CCCCCCCCOCC(COC(=O)CCCCCCC)OC(=O)CCCCCCC (stereo not drawn)	> 100	> 100	> 100	> 100	> 100	–	> 100	–	–	–	–	–	–	–	–	–	–	–	–	–
C(=Nc1nc(SCc2ccccc2)nc2[nH]ncc12)c1cccs1	> 100	> 100	–	> 100	> 100	> 100	–	–	29.8	85.4	–	41.6	> 100	49.6	> 100	> 100	32.6	> 100	27.6	47.1
CC(C)C[C@@H]1NC(=O)[C@@H]2CCCN2C(=O)[C@@H]2CCCN2C(=O)[C@H](CC(C)C)NC(=O)[C@H](CO)NC(=O)[C@H](CCCCN)NC(=O)[C@H]([C@H](C)O)NC(=O)[C@@H]2CSSC[C@@H](NC1=O)C(=O)N[C@@H](Cc1ccccc1)C(=O)N1CCC[C@H]1C(=O)N[C@@H](CC(=O)O)C(=O)NCC(=O)N[C@@H](CCCN=C(N)N)C(=O)N2 (cyclo(C[aThr]KSLPPL[dC]FPDGR); disulfide 1-9)	> 50	> 50	–	> 50	> 50	> 50	33.5	13.2	> 50	> 50	–	> 50	> 50	> 50	> 50	> 50	> 50	> 50	> 50	> 50
C1CCC(N=C2N(C3CCCCC3)C(=NC3CCCCC3)N2C2CCCCC2)CC1	–	> 100	> 100	> 100	> 100	> 100	–	–	–	–	–	–	–	–	–	–	–	–	–	–
CC(=O)Oc1c(C(=O)[O-])cc(C(C)C)cc1C(C)C.CC(=O)Oc1c(C(=O)[O-])cc(C(C)C)cc1C(C)C.CC(=O)Oc1c(C(=O)[O-])cc(C(C)C)cc1C(C)C.CC(=O)Oc1c(C(=O)[O-])cc(C(C)C)cc1C(C)C.[Cu+2].[Cu+2]	> 100	> 100	81.9	> 100	–	–	32.8	16	> 100	27.5	22.7	3.18	9.16	–	–	57.2	57.3	> 100	–	–
COC(=O)C(C(=O)C(=O)Nc1c(Cl)cc([N+](=O)[O-])cc1Cl)c1csc(-n2nc(C3=CCCCC3)cc2-c2ccccc2)n1 (stereo not drawn)	> 100	> 100	> 100	> 100	> 100	> 100	> 100	–	–	–	–	–	–	–	–	–	–	–	–	–
COc1ccc(/C=C2\C(=O)N(NC(C)=O)c3ccccc32)cc1	> 100	> 100	–	> 100	> 100	–	> 100	–	–	–	–	–	–	–	–	–	–	–	–	–
COc1cc(-c2nccc3[nH]c(-c4ccc5cc[nH]c5c4)nc23)cc(OC)c1OC	11.2	1.31	< 0.01	12.1	5.16	–	–	–	< 0.01	< 0.01	< 0.01	–	–	0.01	10.7	1.3	< 0.01	4.74	0.0448	–
